Measured values published in patent US7446199B2, “Compositions useful as inhibitors of protein kinases” (Vertex Pharmaceuticals Incorporated, priority 2003, dated 2008).

The molecules below were run against T1, TAK1A-TAB fusion protein (Homo sapiens, UniProt O43318) (assay: TAK-1 inhibition assay, radiometric filter binding assay). Settings: 50 μM ATP, 12 μM bovine myelin basic protein, 20 nM TAK1A-TAB fusion protein.
T1 construct: using 20 nM TAK1A-TAB fusion protein
T1 sequence (O43318 with tags, fused parts or gaps isoform O43318-2 limits assumed): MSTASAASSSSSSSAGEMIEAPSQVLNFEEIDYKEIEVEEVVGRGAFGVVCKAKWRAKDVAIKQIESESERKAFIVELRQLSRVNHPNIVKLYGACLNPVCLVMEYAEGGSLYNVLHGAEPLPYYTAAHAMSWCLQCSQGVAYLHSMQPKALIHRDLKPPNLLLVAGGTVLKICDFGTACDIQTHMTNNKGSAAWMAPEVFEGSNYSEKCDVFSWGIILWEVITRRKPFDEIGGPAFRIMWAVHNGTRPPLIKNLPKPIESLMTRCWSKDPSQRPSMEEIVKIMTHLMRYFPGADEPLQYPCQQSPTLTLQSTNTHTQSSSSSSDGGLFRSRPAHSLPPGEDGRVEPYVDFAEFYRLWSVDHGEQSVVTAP
Format: biochemical
How it was run: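 Radiometric filter-binding assay with 20 nM TAK1A-TAB fusion, 50 μM [33P]ATP and 12 μM bovine MBP in pH 7.5 HEPES/MgCl2, NaCl, DTT, 1.5% DMSO. Compounds titrated 0.046–3.73 μM (6 points); 2 h at ~20 °C, TCA quench, filtered counts. Ki derived from rate versus inhibitor concentration.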

Row | Ki [nM] | Structure (SMILES)
1 | < 200 | C[N+]1(C)CCN(c2ccc(-c3cnc4[nH]cc(-c5oncc5-c5cccc(F)c5F)c4c3)cc2)CC1 [Compound 155]
2 | 1000 to 12500 | Cc1cnc2[nH]cc(-c3oncc3-c3cccc(F)c3F)c2c1 [Compound 46, 3-[4-(2,3-Difluoro-phenyl)-isoxazol-5-yl]-5-methyl-1H-pyrrolo[2,3-b]pyridine]
3 | 200 to 1000 | CN1CCN(C(=O)[C@H]2C[C@@H]2c2cnc3[nH]cc(-c4oncc4-c4cccc(F)c4F)c3c2)CC1 (relative stereo) [Compound 142, trans-(2-{3-[4-(2,3-Difluoro-phenyl)-isoxazol-5-yl]-1H-pyrrolo[2,3-b]pyridin-5-yl}-cyclopropyl)-(4-methyl-piperazin-1-yl)-methanone]
4 | 200 to 1000 | CN(C)C1CCC(c2cnc3[nH]cc(-c4oncc4-c4cccc(F)c4F)c3c2)CC1 (centres unmarked) [Compound 141, (4-{3-[4-(2,3-Difluoro-phenyl)-isoxazol-5-yl]-1H-pyrrolo[2,3-b]pyridin-5-yl}-cyclohexyl)-dimethylamine]
5 | 1000 to 12500 | Fc1cccc(-n2cnnc2-c2c[nH]c3ncc(-c4ccc(N5CCNCC5)nc4)cc23)c1F [Compound 111, 3-[4-(2,3-Difluoro-phenyl)-4H-[1,2,4]triazol-3-yl]-5-(6-piperazin-1-yl-pyridin-3-yl)-1H-pyrrolo[2,3-b]pyridine]
